Source: patent publication US12692291B2, “Diamine-linked melanocortin receptor-specific cyclic peptides for ocular indications” (Boehringer Ingelheim International GmbH, priority 2020, dated 2026)
*1 amine or outer side, *2 acyl side, *3 side chain or, on linkers, in order; H or OH if unused. Where a SMILES comes first, the peptide text is derived from it. Bridges are numbered along the chain shown (N, C = ends). [ ]: non-standard residue; d: D form. dPhe(4-F) = N[C@H](Cc1ccc(F)cc1)C(=O)O; NH(CH2)4NH = C(CCN[*:2])CN[*:1]; Nle = CCCC[C@H](N)C(=O)O

Experiments:
[1] = target: T1, MC1r (HBL) (Homo sapiens, UniProt Q01726); assay: cAMP agonist functional assay, native MC1r in HBL cells; type: cell-based
T1 construct: B16-F10 (mouse) and HBL (human) cell lines that express native MC1 r; endogenous in cells; host or cells: HBL (human) cell line
Protocol: (§1) Accumulation of intracellular cAMP was examined as a measure of the ability of the peptides to elicit a functional response in either HEK-293 cells that express recombinant MC3r or MC4r or B16-F10 (mouse) and HBL (human) cell lines that express native MC1 r. Confluent cells were detached from culture plates by incubation in enzyme-free cell dissociation buffer. Dispersed cells were suspended in Hank's Balanced Salt Solution containing 10 mM HEPES (pH 7.5), 1 mM MgCl2, 1 mM glutamine, 0.5% albumin and 0.3 mM 3-isobutyl-1-methyl-xanthine (IBMX), a phosphodiesterase inhibitor. The cells were dispensed into 96-well plates at a density of 0.5×10^5 cells per well and pre-incubated for 10 minutes. Cells were exposed for 15 minutes at 37° C. to peptides dissolved in DMSO (final DMSO concentration of 1%) at a concentration range of 0.05-5000 nM in a total assay volume of 200 μL. […] Data analysis was performed by nonlinear regression analysis with Graph-Pad Prism® software.

[2] = target: T2, MC1r (B16/F10) (Mus musculus, UniProt Q01727); assay: cAMP agonist functional assay, native MC1r in B16-F10 cells; type: cell-based
T2 construct: B16-F10 (mouse) and HBL (human) cell lines that express native MC1 r; endogenous in cells; host or cells: B16-F10 (mouse) cell line
Protocol: as §1

[3] = target: T3, MC3r (Homo sapiens, UniProt P41968); assay: cAMP agonist functional assay, recombinant MC3r in HEK-293 cells; type: cell-based
T3 construct: expressed in transfected cells; host or cells: HEK-293
Protocol: as §1

[4] = target: T4, MC4r (Homo sapiens, UniProt P32245); assay: cAMP agonist functional assay, recombinant MC4r in HEK-293 cells; type: cell-based
T4 construct: expressed in transfected cells; host or cells: HEK-293
Protocol: as §1

[5] = target: T5, MC5r (Homo sapiens, UniProt P33032); assay: cAMP agonist functional assay at MC5r (not CEREP); type: cell-based
Target sequence in this assay (P33032 whole entry, species assumed): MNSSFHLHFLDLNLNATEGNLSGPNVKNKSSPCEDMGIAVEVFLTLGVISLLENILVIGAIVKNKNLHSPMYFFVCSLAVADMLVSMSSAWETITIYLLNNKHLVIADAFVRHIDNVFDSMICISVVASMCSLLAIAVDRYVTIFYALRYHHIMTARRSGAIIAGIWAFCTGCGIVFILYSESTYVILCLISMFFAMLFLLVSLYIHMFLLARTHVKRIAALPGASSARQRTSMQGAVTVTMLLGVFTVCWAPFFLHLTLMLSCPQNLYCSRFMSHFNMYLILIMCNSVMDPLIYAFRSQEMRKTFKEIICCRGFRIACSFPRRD

[6] = target: T5, MC5r; assay: CEREP agonist assay, cAMP production by HTRF, MC5 in CHO-K1 cells; type: cell-based
Protocol: Evaluation of the agonist activity of compounds at the melanocortin receptors was determined by measuring their effects on cAMP production using the HTRF detection method at CEREP (Eurofins CEREP SA, Celle-Levescault, France). The cells were suspended in HBSS buffer (Invitrogen) complemented with 20 mM HEPES (pH 7.4) and 500 μM IBMX, then distributed in microplates and incubated in the presence of HBSS (basal control), the test compound or the reference agonist. Incubation time, temperature, cell number, reference agonist and cell line information are included in the Table 1 below. For stimulated control measurement, separate assay wells contain reference compound. Following incubation, the cells are lysed and the fluorescence acceptor (D2-labeled cAMP) and fluorescence donor (anti-cAMP antibody labeled with europium cryptate) were added. After 60 minutes at room temperature, the fluorescence transfer was measured at excitation wavelength 337 nm and emission wavelengths 620 and 665 nm using a microplate reader (Envision, Perkin Elmer). The cAMP concentration was determined by dividing the signal measured at 665 nm by that measured at 620 nm (ratio).
The results are expressed as a percent of the control response to 1 μM of the reference. The standard reference agonist is tested in each experiment at several concentrations to generate a concentration-response curve from which its EC50 value is calculated.
Target sequence in this assay (P33032 whole entry): as the sequence (P33032 whole entry, species assumed) above

[7] = system: male C57BL/6JRj mice; assay: Chronic dry-eye disease mouse model (desiccating environment plus scopolamine), corneal fluorescein staining; type: in vivo; settings: for corneal fluorescein staining compared with untreated eyes: Day 24, after 12 days topical treatment
Protocol: To determine efficacy of peptide No. 60 for moderate, chronic dry-eye disease, male C57BL/6JRj mice were exposed to a controlled desiccating environment with transdermal administration of scopolamine (SiccaSystem™) to establish disease prior to any treatment. Corneal fluorescein staining was performed on study Days 10 and 12 (prior to treatment) and Day 24 (after 12 days of topical treatment with test compounds). Animals were randomized into 6 different experimental groups (n=12 for each treatment group, n=7 for untreated eyes) based on the fluorescein score on Day 12. Treatment arms included untreated and vehicle-treated animals and animals receiving Peptide No. 60 (3 different concentrations, 10^−2, 10^−3, and 10^−4 mg/mL) or the reference compound cyclosporin ophthalmic emulsion, sold under the trade name Restasis®.

[8] = system: adult subjects with mild, moderate or severe dry eye disease; assay: Phase 2 placebo-controlled study in dry eye disease, Controlled Adverse Environment; type: in vivo, human
From the text: Peptide No. 60 was utilized in the ophthalmologic solution drug product of Example 9.3 in a multi-center, double-masked, randomized, placebo-controlled, parallel-arm, Phase 2 study, which enrolled approximately 160 subjects (80 subjects per treatment arm). The objective of this study was to compare the safety and efficacy of Peptide No. 60 to its vehicle from Day 1 (baseline) to Day 85 (Week 12) in adult subjects with mild, moderate or severe dry eye disease in a Controlled Adverse Environment (CAE) setting. Both signs and symptoms were assessed at periodic visits.
During the screening period, two 90-minute exposures to the CAE were conducted to ascertain eligibility to enter the study. Subjects who qualify were randomized to receive study drug or placebo in a double-masked fashion for 12 weeks. Subjects self-administered drops three times per day (TID) and completed daily diary assessments as instructed.
At Visits 3 (Day 15, Week 2), 4 (Day 29, Week 4), 5 (Day 57, Week 8), and 6 (Day 85, Week 12), subjects were exposed to a CAE, with pre-CAE, during CAE (symptoms only) and post-CAE assessments of ocular signs and symptoms.

[9] = Ocular tissue distribution after dosing to the eye, mouse model; type: in vivo; settings: at both 4 and 24 hours after dosing to the eye
Protocol: Peptide No. 60 was evaluated in several stability and pharmacokinetic models.

T3 sequence (P41968 whole entry, species assumed): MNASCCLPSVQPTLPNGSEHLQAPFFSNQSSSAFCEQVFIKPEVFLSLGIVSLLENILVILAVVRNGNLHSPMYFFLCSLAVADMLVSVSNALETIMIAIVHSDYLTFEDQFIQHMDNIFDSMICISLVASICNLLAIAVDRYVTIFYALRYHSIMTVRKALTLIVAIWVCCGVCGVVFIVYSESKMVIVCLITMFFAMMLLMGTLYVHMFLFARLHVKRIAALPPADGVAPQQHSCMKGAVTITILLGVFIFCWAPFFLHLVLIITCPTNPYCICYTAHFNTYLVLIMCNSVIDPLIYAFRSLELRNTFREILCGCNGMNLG
T4 sequence (P32245 whole entry): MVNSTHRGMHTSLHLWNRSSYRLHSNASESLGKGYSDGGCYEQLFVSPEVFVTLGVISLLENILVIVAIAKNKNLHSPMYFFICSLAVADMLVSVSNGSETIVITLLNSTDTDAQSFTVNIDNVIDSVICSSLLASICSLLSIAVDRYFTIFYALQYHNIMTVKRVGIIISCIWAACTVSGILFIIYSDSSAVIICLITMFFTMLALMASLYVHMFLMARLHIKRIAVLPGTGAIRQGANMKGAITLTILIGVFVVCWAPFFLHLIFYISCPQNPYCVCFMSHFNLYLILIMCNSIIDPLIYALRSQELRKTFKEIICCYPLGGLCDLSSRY
T2 sequence (Q01727 whole entry): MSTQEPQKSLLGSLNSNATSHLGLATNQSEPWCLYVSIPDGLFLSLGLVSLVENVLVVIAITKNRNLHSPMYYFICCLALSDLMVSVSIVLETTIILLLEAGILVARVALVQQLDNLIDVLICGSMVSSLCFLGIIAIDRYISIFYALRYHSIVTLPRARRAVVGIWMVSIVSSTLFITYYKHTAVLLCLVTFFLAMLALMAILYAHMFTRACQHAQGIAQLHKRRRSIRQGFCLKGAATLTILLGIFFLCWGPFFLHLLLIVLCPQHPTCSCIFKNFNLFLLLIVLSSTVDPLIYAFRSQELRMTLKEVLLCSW
T1 sequence (Q01726 whole entry): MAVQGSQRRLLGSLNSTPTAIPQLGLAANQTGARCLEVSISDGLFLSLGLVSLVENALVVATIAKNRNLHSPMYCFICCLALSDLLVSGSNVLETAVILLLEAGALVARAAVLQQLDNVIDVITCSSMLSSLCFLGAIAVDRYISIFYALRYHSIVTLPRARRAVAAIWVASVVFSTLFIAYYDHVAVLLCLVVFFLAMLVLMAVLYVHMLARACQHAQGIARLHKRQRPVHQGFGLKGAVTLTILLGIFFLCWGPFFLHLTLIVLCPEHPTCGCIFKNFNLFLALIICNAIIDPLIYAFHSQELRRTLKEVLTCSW

EC50 ([1]; MC1r (HBL)): 0.13 nM
Fold Peptide No. 60 More Potent Than Bremelanotide ([1]; MC1r (HBL)): 0.78X
Fold Peptide No. 60 More Potent Than α-MSH ([1]; MC1r (HBL)): 69X
potency compared to bremelanotide (in words) ([1]; at MC1r): approximately equal potency
potency compared to α-MSH (in words) ([1]; at MC1r): greater relative potency
EC50 [2]: 0.02 nM
Fold Peptide No. 60 More Potent Than Bremelanotide [2]: 5X
Fold Peptide No. 60 More Potent Than α-MSH [2]: 11X
EC50 ([3]; MC3r): 0.77 nM
Fold Peptide No. 60 More Potent Than Bremelanotide ([3]; MC3r): 4X
Fold Peptide No. 60 More Potent Than α-MSH ([3]; MC3r): 3.9X
potency compared to α-MSH (in words) ([3]; at MC3r): roughly comparable
EC50 ([4]; MC4r): 2 nM
Fold Peptide No. 60 More Potent Than Bremelanotide ([4]; MC4r): 0.5X
Fold Peptide No. 60 More Potent Than α-MSH ([4]; MC4r): 1.5X
potency compared to α-MSH (in words) ([4]; at MC4r): roughly comparable
EC50 ([5]; MC5r): 0.15 nM
Fold Peptide No. 60 More Potent Than Bremelanotide ([5]; MC5r): 22,500X
Fold Peptide No. 60 More Potent Than α-MSH ([5]; MC5r): 686X
potency compared to α-MSH (in words) ([5]; at MC5r): greater relative potency
EC50 [6]: 0.39 nM
Fold Peptide No. 60 More Potent Than Bremelanotide [6]: >25,000X (CEREP)
Fold Peptide No. 60 More Potent Than α-MSH [6]: 930X (CEREP)
SMILES: CCCC[C@H](NC(C)=O)C(=O)N[C@H]1CCC(=O)NCCCCNC(=O)[C@H](Cc2c[nH]c3ccccc23)NC(=O)[C@H](CCCNC(=N)N)NC(=O)[C@@H](Cc2ccc(F)cc2)NC(=O)[C@H](Cc2c[nH]cn2)NC1=O [Peptide No. 60, Ac-Nle-cyclo(Glu-His-D-Phe(4-F)-Arg-Trp-NH—(CH2)4—NH)] (Ac-[Nle]EH[dPhe(4-F)]RW; linker 2-C via NH(CH2)4NH)
corneal fluorescein staining compared with untreated eyes ([7]; 10^−2 mg/ml, P<0.05, Dunn's multiple comparisons test): statistically significant lower corneal fluorescein staining
corneal fluorescein staining compared with untreated eyes ([7]; 10^−3 mg/ml, P<0.01, Dunn's multiple comparisons test): statistically significant lower corneal fluorescein staining
corneal fluorescein staining compared with untreated eyes ([7]; 10^−4 mg/ml, P<0.01, Dunn's multiple comparisons test): statistically significant lower corneal fluorescein staining
corneal fluorescein staining/scores, Day 12 compared with Day 24 for the same eye ([7]; doses between 10^−2 and 10^−4 mg/mL, topical): statistically significantly improvement of corneal fluorescein scores
ocular, drug-related adverse events ([8]; Phase 2 study): no ocular, drug-related adverse events
serious adverse events associated with study treatment ([8]; Phase 2 study): no serious adverse events associated with study treatment observed
patients discontinued from the study ([8]; not deemed to be drug related): one
presence in ocular tissues [9]: found in both the conjunctiva and lacrimal gland
